Experimental data: patent US20170283396A1, “DIAMINOHETEROARYL SUBSTITUTED INDAZOLES” (Bayer Pharma Aktiengesellschaft, priority 2013, published 2017)
Read-outs that look alike come from different tables or passages of the source.

Experiments:
HeLa cell line = assay: Proliferation assay (HeLa cell line); type: cell-based; conditions: Homo sapiens, 96 h, read-out: Biological Assay 2: Proliferation assay (HeLa cell line) median IC50
Description: Cultivated tumor cells (cells were ordered from ATCC, except HeLa-MaTu and HeLa-MaTu-ADR, which were ordered from EPO-GmbH, Berlin) were plated at a density of 1000 to 5000 cells/well, depending on the growth rate of the respective cell line, in a 96-well multititer plate in 200 μL of their respective growth medium supplemented 10% fetal calf serum. After 24 hours, the cells of one plate (zero-point plate) were stained with crystal violet (see below), while the medium of the other plates was replaced by fresh culture medium (200 μL), to which the test substances were added in various concentrations (0 μM, as well as in the range of 0.001-10 μM; the final concentration of the solvent dimethyl sulfoxide was 0.5%). The cells were incubated for 4 days in the presence of test substances. Cell proliferation was determined by staining the cells with crystal violet: the cells were fixed by adding 20 μl/measuring point of an 11% glutaric aldehyde solution for 15 minutes at room temperature. After three washing cycles of the fixed cells with water, the plates were dried at room temperature. The cells were stained by adding 100 μl/measuring point of a 0.1% crystal violet solution (pH 3.0). After three washing cycles of the stained cells with water, the plates were dried at room temperature. The dye was dissolved by adding 100 μl/measuring point of a 10% acetic acid solution. Absorption was determined by photometry at a wavelength of 595 nm. The change of cell number, in percent, was calculated by normalization of the measured values to the absorption values of the zero-point plate (=0%) and the absorption of the untreated (0 μm) cells (=100%). The IC50 values were determined by means of a 4 parameter fit using the company's own software.

[1] = target: T1, catalytic domain of human Bub1 (amino acids 704-1085) (Homo sapiens, UniProt O43683); assay: Bub1 kinase assay (TR-FRET); type: biochemical
T1 construct: catalytic domain of human Bub1 (amino acids 704-1085); His6 (N); made in house; host or cells: Hi5 insect cells
Description: To this end, 100-fold concentrated compound solutions (in DMSO) were previously prepared by serial dilution (1:3.4) of 2 mM stocks in a clear low volume 384-well source microtiter plate (Greiner Bio-One, Frickenhausen, Germany), from which 50 nl of compounds were transferred into a black low volume test microtiter plate from the same supplier. […] The resulting mixture (5 μL final volume) was incubated at […] during 60 min., and the reaction was stopped by the addition of 5 μL of an aqueous EDTA-solution (50 mM EDTA, in 100 mM HEPES pH 7.5 and 0.2% (w/v) bovine serum albumin) which also contained the TR-FRET detection reagents (0.2 μM streptavidin-XL665 [Cisbio Bioassays, Codolet, France] and 1 nM anti-phosho-Serine antibody [Merck Millipore, cat. #35-001] and 0.4 nM LANCE EU-W1024 labeled anti-mouse IgG antibody [Perkin-Elmer, product no. AD0077, alternatively a Terbium-cryptate-labeled anti-mouse IgG antibody from Cisbio Bioassays can be used]). The stopped reaction mixture was further incubated 1 h at 22° C. in order to allow the formation of complexes between peptides and detection reagents. Subsequently, the amount of product was evaluated by measurement of the resonance energy transfer from the Eu-chelate-antibody complex recognizing the Phosphoserine residue to the streptavidin-XL665 bound to the biotin moiety of the peptide. […] IC50 values were calculated by fitting the normalized inhibition data to a 4-parameter logistic equation (Minimum, Maximum, IC50, Hill; Y=Max+(Min−Max)/(1+(X/IC50)Hill)).

[2] = TR-FRET, 10 μM ATP, 1 μM peptide substrate, read-out: Biological Assay 1: Bub1 kinase assay median IC50
[3] = cervical cancer, 4 days incubation, crystal violet staining

T1 sequence (O43683 704-1085): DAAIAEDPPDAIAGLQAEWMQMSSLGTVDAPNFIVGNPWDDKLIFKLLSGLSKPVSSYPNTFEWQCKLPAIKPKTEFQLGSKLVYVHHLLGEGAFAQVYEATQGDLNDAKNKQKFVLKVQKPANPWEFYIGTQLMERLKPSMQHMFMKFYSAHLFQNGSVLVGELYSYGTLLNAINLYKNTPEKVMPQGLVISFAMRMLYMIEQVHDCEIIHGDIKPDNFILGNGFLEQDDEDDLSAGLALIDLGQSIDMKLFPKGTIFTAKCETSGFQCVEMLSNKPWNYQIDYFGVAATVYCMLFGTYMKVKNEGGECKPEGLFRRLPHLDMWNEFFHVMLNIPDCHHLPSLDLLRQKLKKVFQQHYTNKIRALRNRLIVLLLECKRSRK

Row | Structure (SMILES) | IC50 (HeLa cell line) | IC50 [1, 2] | IC50 (HeLa cell line; [3]) | IC50 [1]
1 | CCOc1cc(F)c(Cn2nc(-c3nc(N)c(NS(=O)(=O)CC)c(Nc4ccncc4)n3)c3ccccc32)c(F)c1 [Example 2-3-15, N-{4-amino-2-[1-(4-ethoxy-2,6-difluorobenzyl)-1H-indazol-3-yl]-6-(pyridin-4-ylamino)pyrimidin-5-yl}ethanesulfonamide] | ≥ 10 µM | 5.8 nM |  | 
2 | Nc1cc(Nc2ccncc2)nc(-c2nn(Cc3ccccc3F)c3ccccc23)n1 [Example 2-1-1, 2-[1-(2-fluorobenzyl)-1H-indazol-3-yl]-N-(pyridin-4-yl)pyrimidine-4,6-diamine] | 3.6 µM | 19 nM |  | 
3 | CCOc1cc(F)c(Cn2nc(-c3nc4c(c(Nc5ccncc5)n3)OCC(=O)N4)c3ccccc32)c(F)c1 [Example 2-3-17, 2-[1-(4-ethoxy-2,6-difluorobenzyl)-1H-indazol-3-yl]-4-(pyridin-4-ylamino)-6H-pyrimido[5,4-b][1,4]oxazin-7(8H)-one] | 1.2 µM | 8 nM |  | 
4 | CC(=O)Nc1cc(Nc2ccncc2)nc(-c2nn(Cc3ccccc3F)c3ccccc23)n1 [Example 2-2-1, N-{2-[1-(2-fluorobenzyl)-1H-indazol-3-yl]-6-(pyridin-4-ylamino)pyrimidin-4-yl}acetamide] |  |  | ≥ 10 µM | > 20000 nM
5 | CCOc1cc(F)c(Cn2nc(-c3nc(Nc4ccncc4)c(NS(=O)(=O)C(F)(F)F)c(Nc4ccncc4)n3)c3ccccc32)c(F)c1 [Example 2-4-11, N-{2-[1-(4-ethoxy-2,6-difluorobenzyl)-1H-indazol-3-yl]-4,6-bis(pyridin-4-ylamino)pyrimidin-5-yl}-1,1,1-trifluoromethanesulfonamide] |  | 2100 nM |  | 
6 | CCOc1cc(F)c(Cn2nc(-c3nc4c(c(Nc5ccncn5)n3)OCC(=O)N4)c3ccccc32)c(F)c1 [Example 2-3-18, 2-[1-(4-ethoxy-2,6-difluorobenzyl)-1H-indazol-3-yl]-4-(pyrimidin-4-ylamino)-6H-pyrimido[5,4-b][1,4]oxazin-7(8H)-one] | ≥ 10 µM | 19 nM |  | 
7 | CCOc1cc(F)c(Cn2nc(-c3nc(Nc4ccncc4)cc(Nc4ccncc4)n3)c3ccccc32)c(F)c1 [Example 2-4-1, 2-[1-(4-ethoxy-2,6-difluorobenzyl)-1H-indazol-3-yl]-N,N′-di(pyridine-4-yl)pyrimidine-4,6-diamine] |  | 81 nM |  | 
8 | CCNC(=O)Nc1nc(-c2nn(Cc3c(F)cc(OCC)cc3F)c3ccccc23)nc(Nc2ccncc2)c1N1CCOCC1 [Example 2-3-4, 1-{2-[1-(4-ethoxy-2,6-difluorobenzyl)-1H-indazol-3-yl]-5-(morpholin-4-yl)-6-(pyridin-4-ylamino)pyrimidin-4-yl}-3-ethylurea] |  |  | ≥ 10 µM | 130 nM
9 | CCOc1cc(F)c(Cn2nc(-c3nc(N)c(OCCOC)c(Nc4ccncc4)n3)c3ccccc32)c(F)c1 [Example 2-3-10, 2-[1-(4-ethoxy-2,6-difluorobenzyl)-1H-indazol-3-yl]-5-(2-methoxyethoxy)-N-(pyridin-4-yl)pyrimidine-4,6-diamine] | 3.9 µM | 7.2 nM |  | 
10 | COCC(=O)Nc1cc(N(c2ccncc2)c2ccncc2)nc(-c2nn(Cc3ccccc3F)c3ccccc23)n1 [Example 2-2-4, N-{6-(dipyridin-4-ylamino)-2-[1-(2-fluorobenzyl)-1H-indazol-3-yl]pyrimidin-4-yl}-2-methoxyacetamide] |  |  |  | > 20000 nM
11 | CCOc1cc(F)c(Cn2nc(-c3nc(Nc4ccncn4)c(N4CCOCC4)c(Nc4ccncn4)n3)c3ccccc32)c(F)c1 [Example 2-4-4, 2-[1-(4-ethoxy-2,6-difluorobenzyl)-1H-indazol-3-yl]-5-(morpholin-4-yl)-N,N′-di(pyrimidin-4-yl)pyrimidine-4,6-diamine] |  |  |  | 98 nM
12 | CCOc1cc(F)c(Cn2nc(-c3nc(Nc4ccncc4)c(NS(=O)(=O)CC)c(Nc4ccncc4)n3)c3ccccc32)c(F)c1 [Example 2-4-10, N-{2-[1-(4-ethoxy-2,6-difluorobenzyl)-1H-indazol-3-yl]-4,6-bis(pyridin-4-ylamino)pyrimidin-5-yl}ethanesulfonamide] | ≥ 10 µM | 710 nM |  | 
13 | CCOc1cc(F)c(Cn2nc(-c3nc(N)c(NC(=O)COC)c(Nc4ccncn4)n3)c3ccccc32)c(F)c1 [Example 2-3-14, N-{4-amino-2-[1-(4-ethoxy-2,6-difluorobenzyl)-1H-indazol-3-yl]-6-(pyrimidin-4-ylamino)pyrimidin-5-yl}-2-methoxyacetamide] | ≥ 10 µM | 7.9 nM |  | 
14 | CCOc1cc(F)c(Cn2nc(-c3nc(N)cc(Nc4ccncc4)n3)c3ccccc32)c(F)c1 [Example 2-3-1, 2-[1-(4-ethoxy-2,6-difluorobenzyl)-1H-indazol-3-yl]-N-(pyridin-4-yl)pyrimidine-4,6-diamine] | 1.3 µM | 6.4 nM |  | 
15 | CCOc1cc(F)c(Cn2nc(-c3nc(N)nc(Nc4ccncc4)n3)c3ccccc32)c(F)c1 [Example 2-3-9, 6-[1-(4-ethoxy-2,6-difluorobenzyl)-1H-indazol-3-yl]-N-(pyridin-4-yl)-1,3,5-triazine-2,4-diamine] | 2.9 µM | 5.8 nM |  | 
16 | CCOc1cc(F)c(Cn2nc(-c3nc(Nc4ccncn4)c(NC(=O)COC)c(Nc4ccncn4)n3)c3ccccc32)c(F)c1 [Example 2-4-9, N-{2-[1-(4-ethoxy-2,6-difluorobenzyl)-1H-indazol-3-yl]-4,6-bis(pyrimidin-4-ylamino)pyrimidin-5-yl}-2-methoxyacetamide] | ≥ 10 µM | 22 nM |  | 
17 | CCOc1cc(F)c(Cn2nc(-c3nc(N)c(NS(=O)(=O)C(F)(F)F)c(Nc4ccncc4)n3)c3ccccc32)c(F)c1 [Example 2-3-16, N-{4-amino-2-[1-(4-ethoxy-2,6-difluorobenzyl)-1H-indazol-3-yl]-6-(pyridin-4-ylamino)pyrimidin-5-yl}-1,1,1-trifluoromethanesulfonamide] | ≥ 10 µM | 8.7 nM |  | 
18 | CCOc1cc(F)c(Cn2nc(-c3nc(Nc4ccncn4)c(OCCOC)c(Nc4ccncn4)n3)c3ccccc32)c(F)c1 [Example 2-4-7, 2-[1-(4-ethoxy-2,6-difluorobenzyl)-1H-indazol-3-yl]-5-(2-methoxyethoxy)-N,N′-di(pyrimidin-4-yl)pyrimidine-4,6-diamine] |  |  | ≥ 10 µM | 
19 | CCOc1cc(F)c(Cn2nc(-c3nc(Nc4ccncc4)c(OCCOC)c(Nc4ccncc4)n3)c3ccccc32)c(F)c1 [Example 2-4-6, 2-[1-(4-ethoxy-2,6-difluorobenzyl)-1H-indazol-3-yl]-5-(2-methoxyethoxy)-N,N′-di(pyridin-4-yl)pyrimidine-4,6-diamine] |  |  | ≥ 10 µM | 
20 | CCOc1cc(F)c(Cn2nc(-c3nc(N)c(OC)c(Nc4ccncn4)n3)c3ccccc32)c(F)c1 [Example 2-3-6, 2-[1-(4-ethoxy-2,6-difluorobenzyl)-1H-indazol-3-yl]-5-methoxy-N-(pyrimidin-4-yl)pyrimidine-4,6-diamine] |  | 6.5 nM |  | 
21 | CCOc1cc(F)c(Cn2nc(-c3nc(N)c(N4CCOCC4)c(Nc4ccncn4)n3)c3ccccc32)c(F)c1 [Example 2-3-7, 2-[1-(4-ethoxy-2,6-difluorobenzyl)-1H-indazol-3-yl]-5-(morpholin-4-yl)-N-(pyrimidin-4-yl)pyrimidine-4,6-diamine] | 9 µM | 6.6 nM |  | 
22 | CC(=O)Nc1cc(N(c2ccncc2)c2ccncc2)nc(-c2nn(Cc3ccccc3F)c3ccccc23)n1 [Example 2-2-3, N-{6-(dipyridin-4-ylamino)-2-[1-(2-fluorobenzyl)-1H-indazol-3-yl]-pyrimidin-4-yl}acetamide] |  | 18000 nM |  | 
23 | COCC(=O)Nc1cc(Nc2ccncc2)nc(-c2nn(Cc3ccccc3F)c3ccccc23)n1 [Example 2-2-2, N-{2-[1-(2-fluorobenzyl)-1H-indazol-3-yl]-6-(pyridin-4-ylamino)pyrimidin-4-yl}-2-methoxyacetamide] | ≥ 10 µM | 96 nM |  | 
